For the assay, the system named is Arabidopsis Thaliana Columbia (Col 0) seeds. Put plainly: Germination of Arabidopsis seeds in the dark, hypocotyledon length. It counts as in vivo. Conditions: 10 days in the dark. As to the method:
Batches of 25 seeds of Arabidopsis Thaliana Columbia (Col 0) were made to germinate in a suitable culture medium consisting of 0.5 ×MS at pH 5.7, containing 1% sucrose, 1×Vitamin B5 Gamborg, and 0.8% phyto-agar in the presence of the 1,2,5,6-tetrahydro-(11H)benzo[c]quinolizin-3-one inhibitor at the concentrations of 0, 0.01, 0.1, 1 and 10 micromolar. After two hours of treatment in light, the seeds were covered with three layers of aluminium foil and kept at 21° C. in a growth chamber. After 10 days in the dark, the length of the hypocotyledons was measured. […] A reduction of 50% in the hypocotyledons as compared to the controls was found for the seeds treated with a concentration of 0.1 micromolar of inhibitor.

SMILES strings stand for the structures.

Turning to `O=C1C=C2CCc3ccccc3N2CC1` [1,2,5,6-tetrahydro-(11H)benzo[c]quinolizin-3-one], the “length of the hypocotyledons versus inhibitor concentration” value (0.01, 0.1, 1 and 10 micromolar, untreated approximately 15-16 mm) is listed as “progressively shorter as the concentration of inhibitor used was increased”. In addition, the “reduction in the hypocotyledons as compared to the controls” value (0.1 micromolar inhibitor in culture medium, 21° C., batches of 25 seeds) worked out at 50%.

The values are drawn from patent US6514912B1, “Use of benzo[C]quinolizine derivatives as plant growth regulators” (Applied Research Systems ARS Holding N.V., priority 1998, dated 2003).
